From patent US5447869A, “Method of detecting bitter or odorous substances and apparatus therefor” (Sogo Pharmaceutical Company Limited, priority 1987, dated 1995)
Like-named read-outs stand apart in the source and are kept apart here.

Assays:
[1] = Comparative Example 6; Polyvinyl chloride, 45° C.; halothane 9.48×10^-4 M
[2] = Adsorption from aqueous phase on polystyrene film
tadpole [3] = assay: Anesthetic potency obtained by use of a tadpole; details: in vivo
Source text: In Table 3, potency is a value representing intensity of the anesthetics and is shown as values obtained by use of a tadpole.

tadpole [4] = details: cited from earlier work
[5] = for Adsorbed amounts / Frequency Changes -ΔF: Example 9, 2C18 N^+ 2C1 /PSS^-, halothane 9.48×10^-4 M aqueous
Protocol: In FIG. 6, the immobilized bilayer film is cast on a silver-deposited electrode 2 of the crystal oscillator 1 [or on both sides of a silver-electrode-deposited piezoelectric crystal (9 MHz; AT-cut)] and dipped into deionized water in cell 3, bitter or odorous substances are injected thereinto as a solution thereof through an irritant-injecting device 4, frequency changes after the injection are measured by a frequency measuring means (not shown) constituting the crystal oscillator 1, and adsorbed amounts of bitter or odorous substances onto the immobilized bilayer film are determined from proportionality thereof to the frequency changes thus obtained.
The partition coefficient means a ratio of the adsorbed amount of an irritant such as the bitter or odorous substance or the like onto the immobilized bilayer film to an amount by weight of the irritant such as the bitter or odorous substance or the like in the aqueous solution of a constant volume.
Since frequency changes of 10 Hz or less are considered to be within errors in measurements, the concentration at the frequency change of 10 Hz is defined as a concentration threshold value.

[6] = gas phase
Source text: At point B in FIG. 9, the coated crystal oscillator or crystal is removed from the cell into atmosphere with the result that the frequency reverts soon to the same as at point A in FIG. 9, at which the coated crystal oscillator or crystal is placed in the cell. […] In the determination of adsorbed amounts from frequency changes thus obtained, the adsorbed amount is represented in terms of partition coefficient obtained by dividing the adsorbed amount by the total weight of the odorous substance molecules actually existing in the gas phase in order to cancel differences in vapor pressure in the gas phase.

[7] = Adsorption from aqueous phase on poly(methyl-L-glutamate) film
[8] = Example 10; Cholesterylammonium poly(p-styrenesulfonate); halothane 9.48×10^-4 M
[9] = Example 11; CTAB^+ /PSS^-; halothane 9.48×10^-4 M
[10] = Adsorption from aqueous phase on polyvinyl alcohol film
tadpole [11] = assay: Anesthetic potency obtained by use of a tadpole; format: in vivo; details: Table 6; potency converted to gaseous system; partial pressure ratio, methanol as 1.00
[12] = Adsorption from aqueous phase on uncoated crystal oscillator
[13] = Comparative Example 5, Polystyrene, 45° C., halothane 9.48×10^-4 M
[14] = Table 3, tadpole, intensity of the anesthetic
[15] = Comparative Example 8, PMLG, halothane 9.48×10^-4 M
[16] = Comparative Example 7, Polyvinyl alcohol, 45° C., halothane 9.48×10^-4 M
[17] = Table 6, concentration ratio of aqueous solution, methanol as 1.00

SMILES: FC(F)(F)C(Cl)Br (centres unmarked) [halothane]
- Adsorbed amounts [1]: 74 ng
- Frequency Changes -ΔF [1]: 70 Hz
- Adsorbed amounts [2, 13]: 74 ng
- Frequency Changes -ΔF [2, 13]: 70 Hz
- Potency atm (tadpole [3]): 1.72 × 10^3
- Potency (tadpole [4]; [14]): 4.47 × 10^3
- Adsorbed amounts ([5]; 20° C.): 101 ng
- Frequency Changes -ΔF ([5]; 20° C.): 96 Hz
- Adsorbed amounts ([5]; 45° C.): 318 ng
- Frequency Changes -ΔF ([5]; 45° C.): 303 Hz
- adsorbed amount versus film thickness ([5]; Example 14, aqueous, 45° C., halothane 3.00×10^-4 M, FIG. 19): increased with increased film thickness
- adsorption amount versus film thickness ([6]; Example 20, 25° C., 2 μl halothane, FIG. 23): linearly increased
- Adsorbed amounts [7, 15]: 176 ng
- Frequency Changes -ΔF [7, 15]: 168 Hz
- Adsorbed amounts [8]: 82 ng
- Frequency Changes -ΔF [8]: 78 Hz
- Adsorbed amounts [9]: 249 ng
- Frequency Changes -ΔF [9]: 237 Hz
- Adsorbed amounts [10, 16]: 53 ng
- Frequency Changes -ΔF [10, 16]: 50 Hz

SMILES: CCCCCCCCCO [1-nonanol]
- Potency atm (tadpole [3]): 2.51 × 10^8
- Potency (tadpole [4]; [14]): 4.03 × 10^4

SMILES: CCCCCCCCO [1-octanol]
- Potency atm (tadpole [3]): 1.21 × 10^7
- Potency (tadpole [4]; [14]): 7.93 × 10^3

SMILES: CC1OC(C)OC(C)O1 (centres unmarked) [paraldehyde]
- Potency atm (tadpole [3]): 8.20 × 10^2

SMILES: CC(C)=O [acetone]
- Potency (tadpole [4]; [14]): 3.47
- Potency (tadpole [4]; [17]): 3.47
- Potency atm (tadpole [11]): 1.76

SMILES: CCCCCC [hexane]
- Potency (tadpole [4]; [14]): 6.75 × 10^4
- Potency atm (tadpole [11]): 5.21 × 10^4

SMILES: CCCCC [pentane]
- Potency atm (tadpole [3]): 3.34 × 10^3
- Potency (tadpole [4]; [14]): 1.51 × 10^4

SMILES: CCOCC [diethyl ether]
- Potency atm (tadpole [11]): 6.43

SMILES: ClC(Cl)Cl [chloroform]
- Potency (tadpole [4]; [14]): 7.62 × 10^2
- Potency atm (tadpole [11]): 4.62 × 10^2

SMILES: CO [methanol]
- Potency (tadpole [4]; [14]): 1.00
- Potency (tadpole [4]; [17]): 1.00

SMILES: CCCCCCO [1-hexanol]
- Potency (tadpole [4]; [14]): 1.12 × 10^3

SMILES: OCc1ccccc1 [benzylalcohol]
- Potency atm (tadpole [3]): 6.25 × 10^5
- Potency (tadpole [4]; [14]): 5.01 × 10^2

SMILES: COC(F)(F)C(Cl)Cl [methoxyflurane]
- Potency atm (tadpole [3]): 1.82 × 10^4
- Potency (tadpole [4]; [14]): 4.86 × 10^3

SMILES: CCO [ethanol]
- Potency (tadpole [4]; [14]): 2.43
- Potency (tadpole [4]; [17]): 2.43
- Potency atm (tadpole [11]): 5.19

SMILES: CCCCO [1-butanol]
- Potency atm (tadpole [11]): 9.41 × 10^2

SMILES: CCCCCCCCCCO [1-decanol]
- Potency (tadpole [4]; [14]): 1.00 × 10^5
- Potency atm (tadpole [11]): 1.11 × 10^9

SMILES: O=C1C[C@@H]2OCC=C3CN4CC[C@]56c7ccccc7N1[C@H]5[C@H]2[C@H]3C[C@H]46 [Strychnine, strychnine]
- frequency changes due to adsorption ([2]; Comparative Example 4, polystyrene-coated, regardless of temperature, FIG. 12): very little frequency changes
- Partition Coefficient ([2]; Table 2, coating: Polystyrene film): 0.05 10^-3
- frequency changes due to adsorption ([12]; Comparative Example 3, uncoated, regardless of temperature, FIG. 12): little or no frequency changes
- Partition Coefficient ([12]; Table 2, coating: None): 0.03 10^-3
- Partition Coefficient ([7]; Table 2, coating: Polymethyl-L-glutamate film): 0.02 10^-3
- Partition Coefficient ([10]; Table 2, coating: Polyvinyl alcohol film): 0.03 10^-3

SMILES: CC(=O)/C=C/C1=C(C)CCCC1(C)C [β-ionone]
- reversibility of adsorption ([5]; 45° C., strychnine 58.3 μM, β-ionone 125 μM, FIG. 7, FIG. 8): reversible
- frequency change in saturated vapor ([6]; Example 6, FIG. 9): the frequency rapidly decreases and then becomes constant soon
